The values that follow come from ChEMBL document CHEMBL1201862, “PubChem BioAssay data set” (2004).

The structures appear in SMILES notation.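 Protocol summary: plate cells (96-well), add compound at 5 concentrations, incubate 48 h, interpolate endpoints linearly. Abbreviation: GI50, concentration required for 50% inhibition of growth.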 The source made the active and inactive calls. No stated cut-off is given here; in the data, active = GI50 up to about 1.1 µM and inactive = higher.

Test systems include SF-295; CAKI-1; SK-OV-3; NCI-H226; SF-539; IGROV-1; SNB-19; CCRF-CEM; MCF7; OVCAR-3; RXF 393; OVCAR-5; T47D; M14; 786-0; SW-620; SNB-75; UACC-257; NCI-H522; U-251.
What all share (experiment): NCI tumour cell line growth inhibition, 48 h

`COc1ccc(N2C(=O)C(C)SC2c2cc3cc(Br)ccc3nc2Cl)cc1` (stereo not drawn): the GI50 with SF-295 was 33.1 µM (inactive); with CAKI-1, 35.1 µM (inactive); in the assay on SK-OV-3, 59.8 µM (inactive); in the assay on NCI-H226 it was 55.3 µM (inactive); with SF-539, 27.4 µM (inactive); with IGROV-1, 7.93 µM (inactive). In addition, the GI50 was 25.6 µM (inactive) in the assay with SNB-19; 26.6 µM (inactive) with CCRF-CEM; 33.2 µM (inactive) with MCF7; 34.9 µM (inactive) in the assay with OVCAR-3; 28.8 µM (inactive) with RXF 393; 57.9 µM (inactive) with OVCAR-5. Further, the GI50 in the assay with T47D is 34.3 µM (inactive); with M14, 44.4 µM (inactive); in the assay with 786-0 it was 45.8 µM (inactive); in the assay with SW-620 it was 30.4 µM (inactive); in the assay on SNB-75, 91 µM (inactive); in the assay on UACC-257, 30.7 µM (inactive). The GI50 with NCI-H522 was 21.3 µM (inactive).
`COC(=O)c1c(O)ccc2c1c1c(n2Cc2cccc(C)c2)C(=O)c2ccccc2C1=O`: the GI50 in the assay on SF-295 is 13 µM (inactive); with CAKI-1, 11.8 µM (inactive); in the assay with SK-OV-3 it was 11.4 µM (inactive); in the assay with NCI-H226 it was 17.4 µM (inactive); in the assay on SF-539 it was 14.8 µM (inactive); in the assay with U-251 it was 11.6 µM (inactive). Also, the GI50 is 11.4 µM (inactive) in the assay with IGROV-1; 14.1 µM (inactive) in the assay on SNB-19; 4.86 µM (inactive) in the assay on CCRF-CEM; 5.37 µM (inactive) in the assay with MCF7; 8.2 µM (inactive) with OVCAR-3; 10.7 µM (inactive) in the assay with RXF 393. Further, the GI50 is 22.5 µM (inactive) in the assay on OVCAR-5; 1.94 µM (inactive) with T47D; 15 µM (inactive) in the assay on M14; 11.9 µM (inactive) with 786-0; 14.2 µM (inactive) in the assay with SW-620; 16.6 µM (inactive) in the assay with UACC-257. Also, the GI50 with NCI-H522 was 11.5 µM (inactive).
Consider `C1CSCCCSCCCSCCCSCCCSCCCSCCCSCCCSC1`, for which the GI50 was > 100 µM (inactive) in the assay with SF-295; > 100 µM (inactive) in the assay on CAKI-1; > 100 µM (inactive) in the assay on SK-OV-3; 82.2 µM (inactive) with NCI-H226; > 100 µM (inactive) in the assay on SF-539; > 100 µM (inactive) with U-251. The GI50 in the assay with IGROV-1, with SNB-19, with CCRF-CEM, in the assay with MCF7, in the assay with OVCAR-3 and in the assay on RXF 393 was > 100 µM (inactive) throughout. The GI50 in the assay with OVCAR-5, in the assay on T47D, in the assay with M14, with 786-0, in the assay on SW-620 and in the assay on UACC-257 was > 100 µM (inactive) each time. Moreover, in the assay with NCI-H522, the GI50 was > 100 µM (inactive).
Regarding `C[n+]1c(Cl)cn2c3nc4ccccc4nc3c([O-])c(C#N)c21`, the GI50 in the assay with SF-295 is > 100 µM (inactive); in the assay with CAKI-1 it was > 100 µM (inactive); in the assay with SK-OV-3 it was > 100 µM (inactive); with NCI-H226, > 100 µM (inactive); in the assay on SF-539, 9.31 µM (inactive); in the assay with U-251, > 100 µM (inactive). The GI50 in the assay with IGROV-1 is > 100 µM (inactive); with SNB-19 it was > 100 µM (inactive); in the assay with CCRF-CEM it was 77.3 µM (inactive); in the assay with MCF7, 18.1 µM (inactive); with OVCAR-3 it was > 100 µM (inactive); with RXF 393 it was > 100 µM (inactive). Also, the GI50 in the assay on OVCAR-5 was > 10 µM (inactive); with T47D, 41.7 µM (inactive); in the assay with M14 it was > 100 µM (inactive); in the assay with 786-0 it was > 100 µM (inactive); in the assay with SW-620 it was > 100 µM (inactive); in the assay on SNB-75, > 54.6 µM (inactive). The GI50 in the assay with UACC-257 was > 100 µM (inactive); in the assay on NCI-H522, > 10 µM (inactive).
Take `CCOC(=O)c1c[nH]cc1-c1cn(S(=O)(=O)c2ccccc2)cc1C`: the GI50 with SF-295 is 33.7 µM (inactive); in the assay with CAKI-1, 17.7 µM (inactive); in the assay on SK-OV-3, 25.9 µM (inactive); in the assay with SF-539, 21.9 µM (inactive); in the assay with U-251, 25.6 µM (inactive); with IGROV-1, 26.9 µM (inactive). Besides, the GI50 in the assay with SNB-19 is 31.8 µM (inactive); with CCRF-CEM, 24.9 µM (inactive); in the assay with MCF7 it was 29 µM (inactive); in the assay on OVCAR-3, 18.8 µM (inactive); with RXF 393, 47.1 µM (inactive); in the assay with OVCAR-5 it was 52.7 µM (inactive). Further, the GI50 with T47D was 18.2 µM (inactive); with M14, 21.7 µM (inactive); in the assay with 786-0, 37.1 µM (inactive); in the assay on SW-620, > 10 µM (inactive); with SNB-75 it was 15.3 µM (inactive); in the assay on UACC-257, 17.1 µM (inactive). Besides, the GI50 with NCI-H522 is 15.6 µM (inactive).
For `C=C1c2ccccc2C(=O)c2c1c1c(C(=O)OC)c(O)ccc1n2Cc1ccccc1`, the GI50 in the assay with SF-295 is 0.574 µM (active); in the assay with CAKI-1 it was 0.407 µM (active); in the assay on SK-OV-3, 0.346 µM (active); in the assay on SF-539 it was 0.228 µM (active); with U-251, 0.333 µM (active); in the assay on IGROV-1 it was 0.234 µM (active). Further, the GI50 is 0.35 µM (active) in the assay on SNB-19; 0.203 µM (active) with CCRF-CEM; 0.249 µM (active) in the assay with MCF7; 0.151 µM (active) in the assay with OVCAR-3; 0.267 µM (active) with RXF 393; 1.1 µM (active) in the assay with OVCAR-5. Further, the GI50 in the assay on T47D is 0.653 µM (active); in the assay on M14, 0.314 µM (active); with 786-0 it was 0.197 µM (active); with SW-620, 0.342 µM (active); in the assay on SNB-75, 0.264 µM (active); with UACC-257, 1.71 µM (inactive). In addition, the GI50 in the assay with NCI-H522 was 0.237 µM (active).
Turning to `CCCCCCCC/C=C\CCCCCCCC(=O)OC[C@]1(CO)CCC(=O)O1`, the GI50 in the assay with SF-295, with CAKI-1, with SK-OV-3, with NCI-H226, with U-251 and in the assay with IGROV-1 was > 100 µM (inactive) throughout. Also, the GI50 in the assay with SNB-19, in the assay with CCRF-CEM, in the assay with MCF7, in the assay on OVCAR-3, in the assay on RXF 393 and in the assay with OVCAR-5 was > 100 µM (inactive) in each case. Moreover, the GI50 in the assay with T47D, in the assay with M14, in the assay with 786-0, in the assay with SW-620, in the assay on SNB-75 and with UACC-257 was > 100 µM (inactive) in each case. Moreover, in the assay with NCI-H522, the GI50 was > 100 µM (inactive).
Turning to `Nc1ncnc2c1N=C(c1ccccc1)CC(c1ccccc1)N2` (stereo not drawn), the GI50 in the assay on SF-295, with CAKI-1, in the assay with SK-OV-3, in the assay with NCI-H226, in the assay with SF-539 and in the assay on U-251 was > 100 µM (inactive) each time. For the same molecule, the GI50 in the assay with SNB-19, in the assay on CCRF-CEM, in the assay on MCF7, with OVCAR-3, with RXF 393 and in the assay with OVCAR-5 was > 100 µM (inactive) in each case. Besides, the GI50 in the assay on T47D is > 100 µM (inactive); in the assay on M14, > 100 µM (inactive); in the assay on 786-0, > 100 µM (inactive); in the assay on SW-620, > 100 µM (inactive); in the assay on SNB-75, 23.6 µM (inactive); with UACC-257, > 100 µM (inactive). Besides, in the assay on NCI-H522, the GI50 is > 100 µM (inactive).
Turning to `COCOc1cc(OC)ccc1C/C(=N/O)C(=O)OC`, the GI50 with SF-295, in the assay with CAKI-1, in the assay with SK-OV-3, with NCI-H226, in the assay on SF-539 and with U-251 was > 100 µM (inactive) each time. The GI50 with IGROV-1, with SNB-19, in the assay on CCRF-CEM, in the assay on MCF7, with OVCAR-3 and with RXF 393 was > 100 µM (inactive) throughout. Moreover, the GI50 was > 100 µM (inactive) with OVCAR-5; > 100 µM (inactive) in the assay with T47D; > 100 µM (inactive) in the assay with M14; > 100 µM (inactive) in the assay with 786-0; > 100 µM (inactive) in the assay with SW-620; 31.8 µM (inactive) in the assay on SNB-75. For the same molecule, the GI50 with UACC-257 and in the assay with NCI-H522 was > 100 µM (inactive) in each case.
Take `COc1cccc(-c2cc(=O)c3ccccc3o2)c1N`: the GI50 is > 66.1 µM (inactive) in the assay on SF-295; > 100 µM (inactive) in the assay on CAKI-1; 15 µM (inactive) in the assay on SK-OV-3; 63 µM (inactive) with NCI-H226; 63.5 µM (inactive) with SF-539; > 100 µM (inactive) with U-251. In addition, the GI50 is 87.5 µM (inactive) in the assay on IGROV-1; 51.9 µM (inactive) in the assay on SNB-19; > 100 µM (inactive) in the assay with CCRF-CEM; > 100 µM (inactive) with MCF7; > 100 µM (inactive) in the assay on OVCAR-3; 45 µM (inactive) in the assay with RXF 393. Besides, the GI50 with OVCAR-5 was > 91 µM (inactive); in the assay with T47D it was 11.9 µM (inactive); in the assay on M14, 5.56 µM (inactive); in the assay on 786-0, 71 µM (inactive); with SW-620, 15.5 µM (inactive); in the assay with SNB-75, 51.6 µM (inactive). Besides, the GI50 was 36.6 µM (inactive) in the assay with UACC-257 and 27.9 µM (inactive) in the assay on NCI-H522.
